From PMC9525273 (Nature Communications, 2022)
“And” between values parts separate entries of the source, which are not always exact repeats. Equal values may be shown once. Read-outs that look alike come from different tables or passages of the source.

Assays:
[1] = molecular target: T1, PfATP4^WT (membranes from Dd2-Polδ parasites) (Plasmodium falciparum, UniProt A0A143ZZK9); assay: Membrane ATPase assay, ATP4-associated (Na+-dependent) ATPase activity; format: biochemical; conditions: for IC50 for inhibition of ATP4-associated ATPase activity, MEAN: Dd2-Polδ membranes, source data of Table 1 (nM there); for PfATP4-associated ATPase activity (% of control): single experiments; for IC50 for ATP4-associated ATPase activity: membranes from Dd2-Polδ, mean ± SEM
T1 sequence (A0A143ZZK9 1-1264): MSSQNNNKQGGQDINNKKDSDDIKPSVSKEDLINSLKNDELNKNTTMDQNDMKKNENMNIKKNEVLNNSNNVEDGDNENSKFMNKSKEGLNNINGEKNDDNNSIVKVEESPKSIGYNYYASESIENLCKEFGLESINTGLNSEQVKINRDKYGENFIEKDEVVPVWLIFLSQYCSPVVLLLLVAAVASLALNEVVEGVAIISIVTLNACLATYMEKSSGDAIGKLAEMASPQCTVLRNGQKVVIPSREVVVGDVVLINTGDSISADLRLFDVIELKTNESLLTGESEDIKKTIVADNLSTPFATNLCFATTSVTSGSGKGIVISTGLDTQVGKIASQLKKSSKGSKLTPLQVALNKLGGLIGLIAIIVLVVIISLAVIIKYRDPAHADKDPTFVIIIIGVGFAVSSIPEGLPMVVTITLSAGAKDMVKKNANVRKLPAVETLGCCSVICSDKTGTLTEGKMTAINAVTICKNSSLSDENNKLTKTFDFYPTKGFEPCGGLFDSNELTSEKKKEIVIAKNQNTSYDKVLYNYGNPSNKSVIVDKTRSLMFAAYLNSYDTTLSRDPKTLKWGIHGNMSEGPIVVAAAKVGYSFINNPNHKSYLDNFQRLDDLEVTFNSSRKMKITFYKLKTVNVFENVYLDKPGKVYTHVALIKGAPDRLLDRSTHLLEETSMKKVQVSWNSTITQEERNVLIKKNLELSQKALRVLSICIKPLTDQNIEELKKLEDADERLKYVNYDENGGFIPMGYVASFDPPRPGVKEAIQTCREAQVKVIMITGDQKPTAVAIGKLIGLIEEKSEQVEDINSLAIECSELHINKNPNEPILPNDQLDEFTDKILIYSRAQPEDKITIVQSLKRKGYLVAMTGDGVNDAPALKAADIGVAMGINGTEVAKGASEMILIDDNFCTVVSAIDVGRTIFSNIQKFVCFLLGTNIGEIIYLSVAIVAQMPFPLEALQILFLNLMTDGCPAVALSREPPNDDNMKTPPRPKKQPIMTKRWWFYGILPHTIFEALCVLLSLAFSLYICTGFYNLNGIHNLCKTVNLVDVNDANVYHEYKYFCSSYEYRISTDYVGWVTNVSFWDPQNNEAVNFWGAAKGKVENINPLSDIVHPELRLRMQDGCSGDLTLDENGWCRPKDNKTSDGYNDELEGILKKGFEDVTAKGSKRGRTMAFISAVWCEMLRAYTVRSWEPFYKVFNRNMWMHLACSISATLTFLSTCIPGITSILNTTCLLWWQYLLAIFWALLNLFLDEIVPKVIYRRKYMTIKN
Protocol: Membranes from isolated P. falciparum or extracellular T. gondii parasites were prepared by lysing parasites in ice-cold deionized water containing a 1:500 dilution of Protease Inhibitor Cocktail Set III (Merck Millipore), then washing the membrane preparation three times in ice-cold deionized water (with protease inhibitors present for the first two washes)[15]. Protein concentrations in the membrane preparations were measured using a Bradford assay. The PiColorLock Gold Phosphate Detection System (Innova Biosciences) was used to measure the production of Pi from hydrolysis of ATP[15]. Membrane preparations were diluted in either a high Na^+ solution (yielding final conditions in the reactions of 150 mM NaCl, 20 mM KCl, 2 mM MgCl2, 50 mM Tris, pH 7.2) or a Na^+-free solution (yielding final conditions of 150 mM choline chloride, 20 mM KCl, 2 mM MgCl2, 50 mM Tris, pH 7.2) to achieve a total protein concentration of 50 μg/mL. […] The reactions were performed at 37 °C, and were initiated by the addition of 1 mM ATP (Na2ATP۰3H2O; MP Biomedicals) and terminated 10 min later by adding 100 μL of reaction mixture (in duplicate) to 25 μL “Gold mix” in a 96-well plate. “Stabiliser” was added 3 min later, and the plates incubated at room temperature in the dark for 60 min before measuring absorbance at 635 nm. Background values (averaged from wells containing all components, but to which ATP was not added until after the membrane was exposed to Gold mix) were subtracted from the data. For each treatment, the ATPase activity associated with the (Na^+-dependent) PfATP4 and TgATP4 proteins was calculated by subtracting data obtained in the low Na^+ condition (containing only the 2 mM Na^+ introduced on addition of 1 mM Na2ATP) from that obtained in the high Na^+ condition.

NF54^CTL parasites = assay: P. falciparum proliferation assay (72 h, flow cytometry, SYBR Green I/MitoTracker); format: cell-based, Plasmodium falciparum; conditions: for FC (IC50) / FC (IC90): NF54CTL compared to NF54WT
Summary of the method: (§1)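 Predominantly ring-stage cultures at 0.3% parasitaemia, 1% haematocrit, in medium with 10% O+ human serum; compound exposure 72 h, DMSO <0.5% (v/v). Live parasites counted by flow cytometry with SYBR Green I and 200 nM MitoTracker Deep Red. IC50/IC90 from linear interpolation of dose-response data.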

NF54^G358S-2 parasites = assay: as above; format: cell-based, Plasmodium falciparum; conditions: for FC (IC50) / FC (IC90): NF54G358S-2 compared to NF54WT
Summary of the method: as §1

[2] = NF54CTL parasites, individual experiments, read-out: IC90 values
[3] = Plasmodium falciparum, NF54, NF54CTL parasites, mean of the experiments, read-out: IC90 values, MEAN
[4] = Plasmodium falciparum, NF54, NF54CTL, MEAN, source data of Fig. 2, read-out: IC50 values, MEAN
[5] = NF54G358S-2, single experiments, source data of Fig. 2 (nM in Supplementary Table 5), read-out: IC50 values
[6] = NF54G358S-2 parasites, individual experiments, read-out: IC90 values
[7] = Plasmodium falciparum, NF54, NF54G358S-2, 10% human serum, read-out: IC90 ± SEM
[8] = Plasmodium falciparum, NF54, NF54G358S-2, MEAN, source data of Fig. 2, read-out: IC50 values, MEAN
[9] = Plasmodium falciparum, NF54, NF54G358S-2, single experiments, source data of Fig. 2 (nM in Supplementary Table 5), read-out: IC50 values
[10] = Plasmodium falciparum, NF54, NF54G358S-2 parasites, individual experiments, read-out: IC90 values
[11] = Plasmodium falciparum, NF54, NF54G358S-2 parasites, mean of the experiments, read-out: IC90 values, MEAN

SMILES | IC50 for inhibition of ATP4-associated ATPase activity, MEAN ([1]; MEAN) | IC50 for ATP4-associated ATPase activity [1] | FC (IC50) (NF54^CTL parasites) [fold] | FC (IC90) (NF54^CTL parasites) [fold] | IC90 (NF54^CTL parasites; [2]) | IC90 (NF54^CTL parasites; [3]) [µM] | IC50 (NF54^CTL parasites; [4]) [nM] | IC50 (NF54^G358S-2 parasites; [5]) | FC (IC50) (NF54^G358S-2 parasites) [fold] | FC (IC90) (NF54^G358S-2 parasites) [fold] | IC90 (NF54^G358S-2 parasites; [6]) | IC90 (NF54^G358S-2 parasites; [7]) [µM] | IC50 (NF54^G358S-2 parasites; [8]) [nM] | IC50 (NF54^G358S-2 parasites; [9]) [nM] | IC90 (NF54^G358S-2 parasites; [10]) [µM] | IC90 (NF54^G358S-2 parasites; [11]) [µM] | other results
C[C@H]1Cc2c([nH]c3cc(Cl)c(F)cc23)[C@@]2(N1)C(=O)Nc1ccc(Cl)cc12 [Cipargamin] | 2.51 | 2.5 ± 0.8 (4) nM | 1.0 | 1.0 | 0.0036 µM and 0.0034 µM | 0.0037 | 2.55 | 1750 nM and 2010 nM and 2430 nM | 751.9 | 903.4 | 3.35 µM and 3.42 µM and 3.53 µM | 3.43 ± 0.0367 | 1980 | 1750 | 3.43 | 3.43 | remaining activity at 3.76 pM ([1]; Dd2-Polδ, [Cipargamin] 0.00376 nM, MEAN, read-out: PfATP4-associated ATPase activity (% of control)): 75.4%; remaining activity at 11 pM ([1]; Dd2-Polδ, [Cipargamin] 0.011 nM, MEAN, read-out: PfATP4-associated ATPase activity (% of control)): 75%; PfATP4-associated ATPase activity (% of control) ([1]; Dd2-Polδ, [Cipargamin] 0.011 nM, 11 pM): 92.1 % of control and 50.6 % of control and 82.7 % of control and 74.5 % of control; remaining activity at 34 pM ([1]; Dd2-Polδ, [Cipargamin] 0.034 nM, MEAN, read-out: PfATP4-associated ATPase activity (% of control)): 76%; remaining activity at 0.000102 µM ([1]; Dd2-Polδ, [Cipargamin] 0.102 nM, MEAN, read-out: PfATP4-associated ATPase activity (% of control)): 66.1%; remaining activity at 0.000305 µM ([1]; Dd2-Polδ, [Cipargamin] 0.305 nM, MEAN, read-out: PfATP4-associated ATPase activity (% of control)): 60.1%; PfATP4-associated ATPase activity (% of control) ([1]; Dd2-Polδ, [Cipargamin] 0.305 nM, 0.000305 µM): 59.8 % of control and 42.8 % of control and 70.9 % of control and 66.9 % of control; remaining activity at 0.000914 µM ([1]; Dd2-Polδ, [Cipargamin] 0.914 nM, MEAN, read-out: PfATP4-associated ATPase activity (% of control)): 32.6%; remaining activity at 0.002743 µM ([1]; Dd2-Polδ, [Cipargamin] 2.743 nM, MEAN, read-out: PfATP4-associated ATPase activity (% of control)): 25.1%; remaining activity at 0.00823 µM ([1]; Dd2-Polδ, [Cipargamin] 8.230 nM, MEAN, read-out: PfATP4-associated ATPase activity (% of control)): -9.5%; remaining activity at 0.024691 µM ([1]; Dd2-Polδ, [Cipargamin] 24.691 nM, MEAN, read-out: PfATP4-associated ATPase activity (% of control)): -14.7%; remaining activity at 0.074074 µM ([1]; Dd2-Polδ, [Cipargamin] 74.074 nM, MEAN, read-out: PfATP4-associated ATPase activity (% of control)): -19.7%; remaining activity at 0.222222 µM ([1]; Dd2-Polδ, [Cipargamin] 222.222 nM, MEAN, read-out: PfATP4-associated ATPase activity (% of control)): -16.9%; remaining activity at 0.666667 µM ([1]; Dd2-Polδ, [Cipargamin] 666.667 nM, MEAN, read-out: PfATP4-associated ATPase activity (% of control)): -29.5%; remaining activity at 1.25 pM ([1]; Dd2-Polδ, [Cipargamin] […], MEAN, read-out: PfATP4-associated ATPase activity (% of control)): 85.7%; IC90 (NF54^CTL parasites; Plasmodium falciparum, NF54, NF54CTL parasites, individual experiments, read-out: IC90 values): 0.0041 µM; IC50 (NF54^CTL parasites; Plasmodium falciparum, NF54, NF54CTL, 10% human serum, read-out: IC50 ± SEM): 2.6 ± 0.1 nM
N#Cc1cc(NC(=O)[C@H]2c3ccccc3C(=O)N(CC(F)(F)F)[C@@H]2c2cccnc2)ccc1F [(+)-SJ733] | 5.23 | 5.2 ± 2.3 (3) nM | 0.9 | 0.9 | 0.13 µM and 0.155 µM and 0.157 µM | 0.15 | 84.8 | 11600 nM and 13800 nM and 13500 nM | 138.1 | 152.9 | 25.5 µM and 23.3 µM and 23.8 µM | 25 ± 0.892 | 13000 | 12900 | 27.3 | 25 | IC50 (NF54^CTL parasites; NF54CTL, single experiments, source data of Fig. 2 (nM in Supplementary Table 5), read-out: IC50 values): 85.7 nM and 81.4 nM and 82.7 nM; IC50 (NF54^CTL parasites; Plasmodium falciparum, NF54, NF54CTL, single experiments, source data of Fig. 2 (nM in Supplementary Table 5), read-out: IC50 values): 89.3 nM; IC50 (NF54^G358S-2 parasites; Plasmodium falciparum, NF54, NF54G358S-2, 10% human serum, read-out: IC50 ± SEM): 13000 ± 480 nM
